Among the data in patent publication US12215112B2, “CD151 inhibitors” (ESFAM BIOTECH PTY LTD, priority 2020, dated 2025) are IC50 values, retold here.

Broadly, the IC50 is the concentration needed to halve the response being measured.

Structures are written as SMILES.

This test relates to PC3 cells. The test is described as follows: xCELLigence RTCA real-time cell invasion assay (CIM plate, Matrigel) on PC3 prostate cancer cells. The class given is cell-based. Particulars: Homo sapiens, PC-3, compound 25 uM to 1 uM, cell index monitored for 72 hours, four-parameter dose-response curve, read-out: IC50, Effect of compounds on the invention on prostate cancer cells. In a few lines: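 PC3 invasion through 5% Matrigel-coated CIM-plate upper chambers was tracked as impedance cell index over 72 h. Compound at 25–1 µM was present in both chambers, with 3×10^4 cells seeded in serum-free RPMI. IC50 came from a four-parameter fit, and IC90 was derived from IC50 and the Hill slope.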
Regarding `O=C(Nc1cccc(O)c1)c1cc2nc(N3Cc4ccc(F)cc4C3)cc(-c3cn[nH]c3)n2n1` [Compound 64, 5-(5-fluoroisoindolin-2-yl)-N-(3-hydroxyphenyl)-7-(1H-pyrazol-4-yl)pyrazolo[1,5-a]pyrimidine-2-carboxamide], the IC50 worked out at 9.59 µM.

`COc1cccc(NC(=O)c2nn3c(-c4cn[nH]c4)cc(N4Cc5ccccc5C4)nc3c2C)c1` [Compound 66, 5-(isoindolin-2-yl)-N-(3-methoxyphenyl)-3-methyl-7-(1H-pyrazol-4-yl)pyrazolo[1,5-a]pyrimidine-2-carboxamide]: the IC50 stood at 19.7 µM.

As for `Cc1c(C(=O)Nc2cccc(OC(F)(F)F)c2)nn2c(-c3cn[nH]c3)cc(N3Cc4ccccc4C3)nc12` [Compound 67, 5-(isoindolin-2-yl)-3-methyl-7-(1H-pyrazol-4-yl)-N-(3-(trifluoromethoxy)phenyl)pyrazolo[1,5-a]pyrimidine-2-carboxamide], the IC50 was found to be 5.94 µM.

Take `Cc1c(C(=O)Nc2cccc(O)c2)nn2c(-c3cn[nH]c3)cc(N(C)Cc3ccccc3)nc12` [Compound 68, 5-(benzyl(methyl)amino)-N-(3-hydroxyphenyl)-3-methyl-7-(1H-pyrazol-4-yl)pyrazolo[1,5-a]pyrimidine-2-carboxamide]: the IC50 was 5.76 µM.

Consider `COc1cccc(NC(=O)c2nn3c(-c4cn[nH]c4)cc(N(C)Cc4ccccc4)nc3c2C)c1` [Compound 69, 5-(benzyl(methyl)amino)-N-(3-methoxyphenyl)-3-methyl-7-(1H-pyrazol-4-yl)pyrazolo[1,5-a]pyrimidine-2-carboxamide], for which the IC50 came to 1.9 µM.

With `Cc1c(C(=O)Nc2cccc(OC(F)(F)F)c2)nn2c(-c3cn[nH]c3)cc(N(C)Cc3ccccc3)nc12` [Compound 70, 5-(benzyl(methyl)amino)-3-methyl-7-(1H-pyrazol-4-yl)-N-(3-(trifluoromethoxy)phenyl)pyrazolo[1,5-a]pyrimidine-2-carboxamide], the IC50 was 5.87 µM.

Regarding `CC(C)c1c(C(=O)Nc2cccc(O)c2)nn2c(-c3cn[nH]c3)cc(N3Cc4ccccc4C3)nc12` [Compound 71, N-(3-hydroxyphenyl)-5-(isoindolin-2-yl)-3-isopropyl-7-(1H-pyrazol-4-yl)pyrazolo[1,5-a]pyrimidine-2-carboxamide], the IC50 is 3.15 µM.

Take `COc1cccc(NC(=O)c2nn3c(-c4cn[nH]c4)cc(N4Cc5ccccc5C4)nc3c2C(C)C)c1` [Compound 72, 5-(isoindolin-2-yl)-3-isopropyl-N-(3-methoxyphenyl)-7-(1H-pyrazol-4-yl)pyrazolo[1,5-a]pyrimidine-2-carboxamide]: the 50% inhibitory concentration (IC50) was 2.91 µM.

Regarding `CC(C)c1c(C(=O)Nc2cccc(OC(F)(F)F)c2)nn2c(-c3cn[nH]c3)cc(N3Cc4ccccc4C3)nc12` [Compound 73, 5-(isoindolin-2-yl)-3-isopropyl-7-(1H-pyrazol-4-yl)-N-(3-(trifluoromethoxy)phenyl)pyrazolo[1,5-a]pyrimidine-2-carboxamide], the half-inhibitory concentration (IC50) turned out to be 4.91 µM.

On to `CC(C)c1c(C(=O)Nc2cccc(O)c2)nn2c(-c3cn[nH]c3)cc(N(C)Cc3ccccc3)nc12` [Compound 74, 5-(benzyl(methyl)amino)-N-(3-hydroxyphenyl)-3-isopropyl-7-(1H-pyrazol-4-yl)pyrazolo[1,5-a]pyrimidine-2-carboxamide], for which the 50% inhibitory concentration (IC50) amounted to 1.34 µM.

Consider `COc1cccc(NC(=O)c2nn3c(-c4cn[nH]c4)cc(N(C)Cc4ccccc4)nc3c2C(C)C)c1` [Compound 75, 5-(benzyl(methyl)amino)-3-isopropyl-N-(3-methoxyphenyl)-7-(1H-pyrazol-4-yl)pyrazolo[1,5-a]pyrimidine-2-carboxamide], for which the IC50 came to 5.68 µM.

For `CC(C)c1c(C(=O)Nc2cccc(OC(F)(F)F)c2)nn2c(-c3cn[nH]c3)cc(N(C)Cc3ccccc3)nc12` [Compound 76, 5-(benzyl(methyl)amino)-3-isopropyl-7-(1H-pyrazol-4-yl)-N-(3-(trifluoromethoxy)phenyl)pyrazolo[1,5-a]pyrimidine-2-carboxamide], the IC50 is 11.6 µM.

Regarding `COc1cccc(NC(=O)c2nn3c(-c4cn[nH]c4)cc(N4Cc5ccc(F)cc5C4)nc3c2C(C)C)c1` [Compound 77, 5-(5-fluoroisoindolin-2-yl)-3-isopropyl-N-(3-methoxyphenyl)-7-(1H-pyrazol-4-yl)pyrazolo[1,5-a]pyrimidine-2-carboxamide], the IC50 turned out to be 11 µM.

On to `CC(=O)Nc1cccc(NC(=O)c2nn3c(-c4cn[nH]c4)cc(N4Cc5ccc(F)cc5C4)nc3c2C(C)C)c1` [Compound 78, N-(3-acetamidophenyl)-5-(5-fluoroisoindolin-2-yl)-3-isopropyl-7-(1H-pyrazol-4-yl)pyrazolo[1,5-a]pyrimidine-2-carboxamide], for which the concentration for half-maximal inhibition (IC50) came out at 3.03 µM.

Take `CC(=O)N1CCN(c2cccc(NC(=O)c3nn4c(-c5cn[nH]c5)cc(N5Cc6ccc(F)cc6C5)nc4c3C(C)C)c2)CC1` [Compound 79, N-(3-(4-acetylpiperazin-1-yl)phenyl)-5-(5-fluoroisoindolin-2-yl)-3-isopropyl-7-(1H-pyrazol-4-yl)pyrazolo[1,5-a]pyrimidine-2-carboxamide]: the IC50 turned out to be 4.05 µM.

In the case of `CC(=O)N1CCN(c2ccc(NC(=O)c3nn4c(-c5cn[nH]c5)cc(N5Cc6ccc(F)cc6C5)nc4c3C(C)C)cc2)CC1` [Compound 80, N-(4-(4-acetylpiperazin-1-yl)phenyl)-5-(5-fluoroisoindolin-2-yl)-3-isopropyl-7-(1H-pyrazol-4-yl)pyrazolo[1,5-a]pyrimidine-2-carboxamide], the IC50 turned out to be 1 µM.

With `COc1cccc(NC(=O)c2nn3c(-c4cn[nH]c4)cc(N4Cc5ccc(Cl)cc5C4)nc3c2C(C)C)c1` [Compound 81, 5-(5-chloroisoindolin-2-yl)-3-isopropyl-N-(3-methoxyphenyl)-7-(1H-pyrazol-4-yl)pyrazolo[1,5-a]pyrimidine-2-carboxamide], the IC50 is 2.45 µM.

On to `CC(=O)Nc1cccc(NC(=O)c2nn3c(-c4cn[nH]c4)cc(N4Cc5ccc(Cl)cc5C4)nc3c2C(C)C)c1` [Compound 82, N-(3-acetamidophenyl)-5-(5-chloroisoindolin-2-yl)-3-isopropyl-7-(1H-pyrazol-4-yl)pyrazolo[1,5-a]pyrimidine-2-carboxamide], for which the IC50 is 2.92 µM.

For `CC(=O)N1CCN(c2cccc(NC(=O)c3nn4c(-c5cn[nH]c5)cc(N5Cc6ccc(Cl)cc6C5)nc4c3C(C)C)c2)CC1` [Compound 83, N-(3-(4-acetylpiperazin-1-yl)phenyl)-5-(5-chloroisoindolin-2-yl)-3-isopropyl-7-(1H-pyrazol-4-yl)pyrazolo[1,5-a]pyrimidine-2-carboxamide], the IC50 worked out at 10.1 µM.

For the compound `CC(=O)N1CCN(c2ccc(NC(=O)c3nn4c(-c5cn[nH]c5)cc(N5Cc6ccc(Cl)cc6C5)nc4c3C(C)C)cc2)CC1` [Compound 84, N-(4-(4-acetylpiperazin-1-yl)phenyl)-5-(5-chloroisoindolin-2-yl)-3-isopropyl-7-(1H-pyrazol-4-yl)pyrazolo[1,5-a]pyrimidine-2-carboxamide], the 50% inhibitory concentration (IC50) stood at 1.1 µM.

On to `COc1cccc(NC(=O)c2nn3c(-c4cn[nH]c4)cc(N4Cc5ccc(Cl)cc5C4)nc3c2C(C)(C)C)c1` [Compound 89, 3-(tert-butyl)-5-(5-chloroisoindolin-2-yl)-N-(3-methoxyphenyl)-7-(1H-pyrazol-4-yl)pyrazolo[1,5-a]pyrimidine-2-carboxamide], for which the IC50 is 3.11 µM.

Turning to `O=C(Nc1cccc(O)c1)c1nn2c(-c3cn[nH]c3)cc(N3Cc4ccccc4C3)nc2c1C1CC1` [Compound 94, 3-cyclopropyl-N-(3-hydroxyphenyl)-5-(isoindolin-2-yl)-7-(1H-pyrazol-4-yl)pyrazolo[1,5-a]pyrimidine-2-carboxamide], the half-inhibitory concentration (IC50) stood at 6.21 µM.

In the case of `CC(=O)N1CCN(c2cccc(NC(=O)c3nn4c(-c5cn[nH]c5)cc(N5Cc6ccccc6C5)nc4c3C3CC3)c2)CC1` [Compound 95, N-(3-(4-acetylpiperazin-1-yl)phenyl)-3-cyclopropyl-5-(isoindolin-2-yl)-7-(1H-pyrazol-4-yl)pyrazolo[1,5-a]pyrimidine-2-carboxamide], the IC50 was 2.12 µM.

Regarding `COc1ccc(NC(=O)c2nn3c(-c4cn[nH]c4)cc(N4Cc5ccccc5C4)nc3c2C2CC2)cc1` [Compound 96, 3-cyclopropyl-5-(isoindolin-2-yl)-N-(4-methoxyphenyl)-7-(1H-pyrazol-4-yl)pyrazolo[1,5-a]pyrimidine-2-carboxamide], the IC50 was 6.47 µM.

In the case of `CC(=O)Nc1cccc(NC(=O)c2nn3c(-c4cn[nH]c4)cc(N4Cc5ccccc5C4)nc3c2C2CC2)c1` [Compound 97, N-(3-acetamidophenyl)-3-cyclopropyl-5-(isoindolin-2-yl)-7-(1H-pyrazol-4-yl)pyrazolo[1,5-a]pyrimidine-2-carboxamide], the IC50 is 1.08 µM.

On to `O=C(Nc1cccc(Cl)c1)c1nn2c(-c3cn[nH]c3)cc(N3Cc4ccccc4C3)nc2c1C1CC1` [Compound 98, N-(3-chlorophenyl)-3-cyclopropyl-5-(isoindolin-2-yl)-7-(1H-pyrazol-4-yl)pyrazolo[1,5-a]pyrimidine-2-carboxamide], for which the IC50 was determined as 12.5 µM.

Consider `CC(C)c1c(C(=O)Nc2cccc(O)c2)nn2c(-c3cn[nH]c3)cc(N3Cc4ccc(F)cc4C3)nc12` [Compound 99, 5-(5-fluoroisoindolin-2-yl)-N-(3-hydroxyphenyl)-3-isopropyl-7-(1H-pyrazol-4-yl)pyrazolo[1,5-a]pyrimidine-2-carboxamide], for which the IC50 was 1.23 µM.

Turning to `CC(C)c1c(C(=O)Nc2cccc(O)c2)nn2c(-c3cn[nH]c3)cc(N3Cc4ccc(Cl)cc4C3)nc12` [Compound 100, 5-(5-chloroisoindolin-2-yl)-N-(3-hydroxyphenyl)-3-isopropyl-7-(1H-pyrazol-4-yl)pyrazolo[1,5-a]pyrimidine-2-carboxamide], the IC50 came to 2.23 µM.

Regarding `CC(C)c1c(C(=O)Nc2cccc(N3CCOCC3)c2)nn2c(-c3cn[nH]c3)cc(N3Cc4ccc(F)cc4C3)nc12` [Compound 101, 5-(5-fluoroisoindolin-2-yl)-3-isopropyl-N-(3-morpholinophenyl)-7-(1H-pyrazol-4-yl)pyrazolo[1,5-a]pyrimidine-2-carboxamide], the IC50 came out at 3.99 µM.
